The results in this text go back to patent publication US6433022B1, “Spermicide” (Medical Research Council, priority 1997, dated 2002).

pIC50: −log10 of the molar value.

What all share (type): cell-based
Assay [1] relates to human spermatozoa. Nature of the assay: Effect of inhibitors on NADPH-induced ROS generation, lucigenin-dependent chemiluminescence. Particulars: for inhibition of the response to NAD(P)H: triton permeabilized cells; for Lucigenin dependent chemiluminescence: Treated, NADPH-induced, means ± SE; for effect on NADPH-dependent reactive oxygen species generation: dicoumarol 100 μM, sodium oxamate 1 mM, allopurinol 10 mM; for effect of mitochondrial electron transport chain inhibitors on response to NADPH: intact spermatozoa. The source says:
ROS generation was monitored by luminometry employing the chemiluminescence probes lucigenin and luminol. Lucigenin is sensitive to the presence of superoxide anion and was used to monitor the free radical responses to NAD(P)H. Luminol, when used in conjunction with horseradish peroxidase (HRP; Sigma Type Vl, 288 U/mg), detects mainly hydrogen peroxide (Aitken et al., 1992) and was used to monitor the responses of spermatozoa to PMA (phorbol 12-myristate, 13-acetate), an activator of protein kinase C. […] Photon emission was monitored at 37° C. using the Bermold 9505B luminometer (Berthold, Wilbad, Germany) featuring 6 electronically compensated, peltier cooled, photomultipliers and the results expressed as counts/minute. For both of the probes used, 400 μl of spermatozoa, at a concentration of 10×10^6/ml, were placed in a 3 ml plastic, flat-bottomed plastic tube. For luminol-based reactions, the spermatozoa were suspended in BWW supplemented with Albuminar, but when lucigenin was used the Albuminar was replaced with 1 mg/ml polyvinyl alcohol. A 4 μl aliquot of a 25 mM stock solution of either luminol or lucigenin m-dimethyl sulphoxide (DMSO), was then added to the cell suspension, resulting in a final probe concentration of 250 μM. For the measurement of hydrogen peroxide generation by intact cells, luminol-dependent chemiluminescence was enhanced by addition of 8 μl of HRP, freshly prepared at a concentration of 2 mg/ml in PBS, to give a final HRP concentration of 11.52 U/ml. The luminometer results were recorded as continuous traces and as integrated photon counts over a fixed period of time (5 min).
In all experiments, DPI was added to the spermatozoa before the addition of NADPH or PMA while control incubations were supplemented with DMSO alone. ROS generation was recorded for approximately 10 min to establish a steady state signal and then 45 μl of NADPH (final concentration 500 μM) or 4 μl of PMA (final concentration 100 nM) were added and the responses monitored for around 20 min using lucigenin and luminol-peroxidase based chemiluminescence respectively.
Quinacrine was purchased from Sigma and dissolved in 10% DMSO to give a stock solution of 10 mM. […] The impact of quinacrine on NADPH- and PMA-induced ROS generation was monitored as described above for DPI.

Assay [2] concerns human spermatozoa. Nature of the assay: Effect of inhibitors on PMA-induced hydrogen peroxide production, luminol-peroxidase chemiluminescence. The note with it: 100 nM PMA. The source says:
ROS generation was monitored by luminometry employing the chemiluminescence probes lucigenin and luminol. Lucigenin is sensitive to the presence of superoxide anion and was used to monitor the free radical responses to NAD(P)H. Luminol, when used in conjunction with horseradish peroxidase (HRP; Sigma Type Vl, 288 U/mg), detects mainly hydrogen peroxide (Aitken et al., 1992) and was used to monitor the responses of spermatozoa to PMA (phorbol 12-myristate, 13-acetate), an activator of protein kinase C. […] Photon emission was monitored at 37° C. using the Bermold 9505B luminometer (Berthold, Wilbad, Germany) featuring 6 electronically compensated, peltier cooled, photomultipliers and the results expressed as counts/minute. […] The luminometer results were recorded as continuous traces and as integrated photon counts over a fixed period of time (5 min).
In all experiments, DPI was added to the spermatozoa before the addition of NADPH or PMA while control incubations were supplemented with DMSO alone. ROS generation was recorded for approximately 10 min to establish a steady state signal and then 45 μl of NADPH (final concentration 500 μM) or 4 μl of PMA (final concentration 100 nM) were added and the responses monitored for around 20 min using lucigenin and luminol-peroxidase based chemiluminescence respectively. […]

Another assay relates to human sperm. The assay can be described thus: Effect of quinones on sperm motility. The note with it: for mean motility score: 50 μM quinone, human sperm. As for the experimental part:
Following the preparation of spermatozoa by standard Percoll gradient they were resuspended in homologous seminal plasma to a concentration of 20 million per ml, immediately prior to the beginning of the experiment. 50 μl of the sperm suspension was placed in an eppendorf tube, and the quinone was either added alone or in combination with other reagents, for example, KI, HRP (Horseradish Peroxidase), BHT (butylated hydroxytoluene) etc. depending on the experiment. The volume was made up to 100 μl with BWW/PVA.
The quinone was always the final reagent to be added. […] The sample was gently agitated and 10 μl was placed on a slide and a motility was scored. The aim was to score a motility approximately 20 seconds following the addition of the quinone. There were two controls set up, one motility count taken at the beginning of the experiment (initial control) and one motility count taken at the end of the experiment (final control). The controls consisted of 50 μl of the sperm suspension followed by the addition of 50 μl BWW/PVA. The reason for having two controls was to observe if any changes in sperm motility had occurred simply as a factor of time, i.e. from residing in seminal plasma for a long duration. At all times during the experiment, the spermatozoa were incubated in a hot box at 24° C. All motility experiments were carried out on sperm suspended in seminal plasma unless otherwise stated.

The subject of assay [3] is human spermatozoa. The assay can be described thus: Nicotinamide dinucleotide-induced superoxide generation, lucigenin-dependent chemiluminescence. The note with it: 500 μM nucleotide. The source says: ROS generation was monitored by luminometry employing the chemiluminescence probes lucigenin and luminol. Lucigenin is sensitive to the presence of superoxide anion and was used to monitor the free radical responses to NAD(P)H. Luminol, when used in conjunction with horseradish peroxidase (HRP; Sigma Type Vl, 288 U/mg), detects mainly hydrogen peroxide (Aitken et al., 1992) and was used to monitor the responses of spermatozoa to PMA (phorbol 12-myristate, 13-acetate), an activator of protein kinase C. NAD(P)H could not be used with the luminol-peroxidase system because of the generation of high background signals, presumably due to the oxidase reactions of HRP. Photon emission was monitored at 37° C. using the Bermold 9505B luminometer (Berthold, Wilbad, Germany) featuring 6 electronically compensated, peltier cooled, photomultipliers and the results expressed as counts/minute. For both of the probes used, 400 μl of spermatozoa, at a concentration of 10×10^6/ml, were placed in a 3 ml plastic, flat-bottomed plastic tube. For luminol-based reactions, the spermatozoa were suspended in BWW supplemented with Albuminar, but when lucigenin was used the Albuminar was replaced with 1 mg/ml polyvinyl alcohol. A 4 μl aliquot of a 25 mM stock solution of either luminol or lucigenin m-dimethyl sulphoxide (DMSO), was then added to the cell suspension, resulting in a final probe concentration of 250 μM. For the measurement of hydrogen peroxide generation by intact cells, luminol-dependent chemiluminescence was enhanced by addition of 8 μl of HRP, freshly prepared at a concentration of 2 mg/ml in PBS, to give a final HRP concentration of 11.52 U/ml. The luminometer results were recorded as continuous traces and as integrated photon counts over a fixed period of time (5 min).
The ability of human spermatozoa to generate superoxide anion in response to NADPH was monitored by lucigenin-dependent chemiluminescence and compared with its non-phosphorylated and non-reduced counterparts, i.e. NADH, NADP^+ and NAD^+. In addition, the stimulatory properties of an isomer of NADPH, usually non-active in reductive biosynthesis, were examined. All pyridine nucleotides were made up to the required concentration in PBS immediately prior to use. Stock solutions of the nucleotides were made up at concentrations 10 fold higher than the required final working concentration, to allow for a 10 fold dilution on addition to the suspensions of spermatozoa.

`CC[C@H]1/C=C/C=C/C[C@@H](C)[C@H](O)[C@@](C)(O)C(=O)[C@@H](C)[C@H](O)[C@@H](C)C(=O)[C@@H](C)[C@H](O)[C@@H](C)/C=C/C(=O)O[C@@H]2[C@H](C)[C@H](CC1)O[C@]1(CC[C@H](C)[C@H](C[C@@H](C)O)O1)[C@H]2C` [oligomycin]: in the assay with human spermatozoa [1], the “inhibition of the response to NAD(P)H” value is on record as “no inhibition”.

The molecule `NC(=O)C(=O)[O-].[Na+]` [Sodium Oxamate, sodium oxamate] came in with a Lucigenin dependent chemiluminescence with human spermatozoa [1] (inhibitor 1 mM) of 5.20 ± 2.10 counts/5 min × 104. For the same molecule, in the assay on human spermatozoa [1], the “effect on NADPH-dependent reactive oxygen species generation” value is “ineffective”.

On to antimycin A, for which, in the assay on human spermatozoa [1] (inhibitor 50 μM), the Lucigenin dependent chemiluminescence stood at 10.53 ± 2.49 counts/5 min × 104. In addition, in the assay with human spermatozoa [1], the “effect of mitochondrial electron transport chain inhibitors on response to NADPH” value is listed as “none of which were effective” and the “inhibition of the response to NAD(P)H” value was “no inhibition”.

`c1ccc2c(c1)[I+]c1ccccc1-2` [DPI, Diphenylene Iodonium]: the “inhibition of PMA-stimulated hydrogen peroxide production” value in the assay on human spermatozoa [2] (dose range 0.01-100 μM) was “competent to inhibit”. Besides, the “suppression of NADPH-induced free radical generation” value in the assay with human spermatozoa [1] (500 μM NADPH, statistically significant at the 1 μM level (P<0.001)) is on record as “dose-dependent capacity to suppress”.

`CC1=CC(=O)c2c(O)cccc2C1=O` [plumbagin]: in the assay with human sperm, the mean motility score was 54%.

Turning to `NC(=O)c1ccc[n+]([C@@H]2O[C@H](COP(=O)([O-])OP(=O)(O)OC[C@H]3O[C@@H](n4cnc5c(N)ncnc54)[C@H](OP(=O)(O)O)[C@@H]3O)[C@@H](O)[C@H]2O)c1` [NADP^+], in the assay on human spermatozoa [3], the “lucigenin-dependent chemiluminescent response (superoxide anion generation)” value is “almost completely without effect”.

With `C=C(C)[C@H]1Cc2c(ccc3c2O[C@@H]2COc4cc(OC)c(OC)cc4[C@@H]2C3=O)O1` [Rotenone, rotenone], in the assay with human spermatozoa [1] (inhibitor 10 μM), the Lucigenin dependent chemiluminescence came to 9.07 ± 2.26 counts/5 min × 104. In the assay on human spermatozoa [1], the “effect of mitochondrial electron transport chain inhibitors on response to NADPH” value was “none of which were effective” and the “inhibition of the response to NAD(P)H” value is recorded as “no inhibition”.

Consider `NC(=O)C1=CN([C@H]2O[C@H](COP(=O)(O)OP(=O)(O)OC[C@H]3O[C@@H](n4cnc5c(N)ncnc54)[C@H](OP(=O)(O)O)[C@@H]3O)[C@@H](O)[C@H]2O)C=CC1` [α NADPH], for which the “lucigenin-dependent chemiluminescent response (superoxide anion generation)” value in the assay on human spermatozoa [3] is listed as “lack of response”.

For `O=C1C=CC(=O)c2c(O)cccc21` [juglone], the mean motility score in the assay on human sperm is recorded as 5%. Moreover, the pIC50 in the assay on human sperm (human sperm in seminal plasma, motility scored approximately 20 seconds after addition, read-out: ID50, dose-dependent inhibition of sperm motility) was about 5.00.

As for `NC(=O)C1=CN([C@@H]2O[C@H](COP(=O)(O)OP(=O)(O)OC[C@H]3O[C@@H](n4cnc5c(N)ncnc54)[C@H](O)[C@@H]3O)[C@@H](O)[C@H]2O)C=CC1` [NADH], the “lucigenin-dependent chemiluminescent response (superoxide anion generation)” value in the assay with human spermatozoa [3] is on record as “approximately one third of that induced by β-NADPH”.

Take `CCN(CC)CCCC(C)Nc1c2ccc(Cl)cc2nc2ccc(OC)cc12` (stereo not shown) [quinacrine]: the “suppression of responses to PMA” value with human spermatozoa [2] (doses of 75-100 M) is reported as “complete loss of activity”. Further, the “suppression of NADPH-induced ROS production” value with human spermatozoa [1] (500 μM NADPH, concentrations as high as 50 μM, no dose/response relationship) was 30-40%.

For the molecule `[N-]=[N+]=[N-]` [Sodium azide, sodium azide], in the assay with human spermatozoa [1] (inhibitor 10 μM), the Lucigenin dependent chemiluminescence is reported as 7.69 ± 1.54 counts/5 min × 104.

Consider `N#CC(C#N)=NNc1cccc(Cl)c1` [CCP, carbonyl cyanide m-chlorophenylhydrazone], for which the Lucigenin dependent chemiluminescence in the assay on human spermatozoa [1] (inhibitor 10 μM) is 12.61 ± 6.97 counts/5 min × 104. In addition, the “effect of mitochondrial electron transport chain inhibitors on response to NADPH” value with human spermatozoa [1] is recorded as “none of which were effective”.

As to `O=c1oc2ccccc2c(O)c1Cc1c(O)c2ccccc2oc1=O` [Dicoumarol, dicoumarol], in the assay with human spermatozoa [1] (inhibitor 100 μM), the Lucigenin dependent chemiluminescence turned out to be 5.20 ± 2.10 counts/5 min × 104. For the same molecule, the “effect on NADPH-dependent reactive oxygen species generation” value with human spermatozoa [1] is reported as “ineffective”.

Consider `NC(=O)c1ccc[n+]([C@@H]2O[C@H](COP(=O)([O-])OP(=O)(O)OC[C@H]3O[C@@H](n4cnc5c(N)ncnc54)[C@H](O)[C@@H]3O)[C@@H](O)[C@H]2O)c1` [NAD^+], for which the “lucigenin-dependent chemiluminescent response (superoxide anion generation)” value with human spermatozoa [3] is listed as “almost completely without effect”.

For the molecule `O=C1C=C(O)C(=O)c2ccccc21` [lawsone], in the assay with human sperm, the mean motility score came to 51%.

On to `Oc1ncnc2[nH]ncc12` [Allopurinol, allopurinol], for which the Lucigenin dependent chemiluminescence in the assay on human spermatozoa [1] (inhibitor 10 mM) is listed as 7.19 ± 1.66 counts/5 min × 104. The “effect on NADPH-dependent reactive oxygen species generation” value with human spermatozoa [1] was “ineffective”.
